Target: T1, human mGluR5 (Homo sapiens, UniProt P41594)
T1 construct: expressed in transfected cells; host or cells: HEK293 cells stably expressing rat GLAST (EAAT1), stably transfected with pcDNAzeo3.1 carrying synthetic human mGluR5 DNA; zeocin-selected single clones
Assay: In vitro cell-based FLIPR calcium assay for positive modulation of the activation of mGluR5 by glutamate (PAM EC50)
Details: HEK293/GLAST cells expressing recombinant human mGluR5; FLIPR calcium signal; glutamate added at its EC20; read-out: mGluR5 PAM EC50
How it was run: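 HEK293/GLAST cells stably expressing mGluR5 were loaded with calcium-sensitive dye (25 °C, 45–60 min) in HBSS/20 mM HEPES. Test compounds were assayed in buffer containing glutamate at that day's EC20, with FLIPR fluorescence recorded. Controls contained 0.3% DMSO without compound.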

T1 sequence (P41594 21-1212): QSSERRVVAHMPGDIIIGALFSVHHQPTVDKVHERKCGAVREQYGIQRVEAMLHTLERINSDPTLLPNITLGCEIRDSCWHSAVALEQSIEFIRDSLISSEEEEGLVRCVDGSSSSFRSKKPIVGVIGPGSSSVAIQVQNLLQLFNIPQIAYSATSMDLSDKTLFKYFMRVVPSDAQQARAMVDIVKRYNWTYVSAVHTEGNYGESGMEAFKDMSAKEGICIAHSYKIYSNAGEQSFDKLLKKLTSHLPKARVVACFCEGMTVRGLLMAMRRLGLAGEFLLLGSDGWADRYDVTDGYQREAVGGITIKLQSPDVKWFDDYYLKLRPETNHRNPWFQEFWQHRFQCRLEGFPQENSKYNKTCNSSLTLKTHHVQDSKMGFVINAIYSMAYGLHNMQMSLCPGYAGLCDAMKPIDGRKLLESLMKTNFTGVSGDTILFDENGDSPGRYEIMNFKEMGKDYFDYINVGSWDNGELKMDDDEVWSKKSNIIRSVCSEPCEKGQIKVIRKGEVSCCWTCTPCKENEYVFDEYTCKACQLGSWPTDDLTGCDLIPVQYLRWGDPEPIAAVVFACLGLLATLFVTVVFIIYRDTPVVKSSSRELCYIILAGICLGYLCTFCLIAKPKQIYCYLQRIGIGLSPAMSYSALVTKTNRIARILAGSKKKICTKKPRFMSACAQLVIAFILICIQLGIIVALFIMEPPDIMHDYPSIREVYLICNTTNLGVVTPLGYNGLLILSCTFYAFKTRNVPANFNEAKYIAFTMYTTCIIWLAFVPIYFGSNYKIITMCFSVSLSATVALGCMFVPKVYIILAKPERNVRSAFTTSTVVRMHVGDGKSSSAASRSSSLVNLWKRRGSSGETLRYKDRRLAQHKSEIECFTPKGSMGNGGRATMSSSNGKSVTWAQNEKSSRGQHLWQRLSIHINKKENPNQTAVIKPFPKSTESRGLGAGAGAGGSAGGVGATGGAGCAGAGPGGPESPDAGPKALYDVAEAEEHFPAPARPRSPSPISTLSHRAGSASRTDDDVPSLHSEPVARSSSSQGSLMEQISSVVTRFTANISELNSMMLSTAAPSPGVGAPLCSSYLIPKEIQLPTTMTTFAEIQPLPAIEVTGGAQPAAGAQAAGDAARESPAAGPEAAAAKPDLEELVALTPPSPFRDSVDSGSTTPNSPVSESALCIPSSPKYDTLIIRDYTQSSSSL

EC50 [nM]	Compound
300 to 1000	O=c1[nH]ccc2cc(C#Cc3cccc(F)c3)ccc12 [Example 18.1, 6-((3-fluorophenyl)ethynyl)isoquinolin-1(2H)-one]
300 to 1000	CCCn1ccc2cc(C#Cc3ccc(F)cc3)ccc2c1=O [Example 18.2, 6-((4-fluorophenyl)ethynyl)-2-propylisoquinolin-1 (2H)-one]
30 to 100	Fc1ccc(C#Cc2ccc3c(c2)N=C2CCCCCN2C3)cc1 [Example 19.1, 3-((4-fluorophenyl)ethynyl)-6,7,8,9,10,12-hexahydroazepino[2,1-b]quinazoline]
< 10	O=c1c2ccc(/C=C/c3ccccc3)cc2nc2n1CCCCC2 [Example 20.2, (E)-3-styryl-7,8,9,10-tetrahydroazepino[2,1-b]quinazolin-12(6H)-one]
30 to 100	CC1(C)CCn2c(nc3cc(/C=C/c4ccccc4F)ccc3c2=O)C1 [Example 20.6, (E)-3-(2-fluorostyryl)-7,7-dimethyl-8,9-dihydro-6H-pyrido[2,1-b]quinazolin-11(7H)-one]
10 to 30	CC1(C)CCn2c(nc3cc(/C=C/c4ccccn4)ccc3c2=O)C1 [Example 20.7]
30 to 100	O=c1c2ccc(/C=C/c3ccccn3)cc2nc2n1CCCCC2 [Example 20.10, (E)-3-(2-(pyridin-2-yl)vinyl)-7,8,9,10-tetrahydroazepino[2,1-b]quinazolin-12(6H)-one]
30 to 100	CC1(C)CCc2nc3cc(/C=C/c4ccccc4F)ccc3c(=O)n2C1 [Example 20.12, (E)-3-(2-fluorostyryl)-8,8-dimethyl-8,9-dihydro-6H-pyrido[2,1-b]quinazolin-11(7H)-one]
10 to 30	CC1(C)CCc2nc3cc(/C=C/c4cccc(C#N)n4)ccc3c(=O)n2C1 [Example 20.13, (E)-6-(2-(8,8-dimethyl-11-oxo-7,8,9,11-tetrahydro-6H-pyrido[2,1-b]quinazolin-3-yl)vinyl)picolinonitrile]
100 to 300	O=c1c2ccc(CCc3ccccc3)cc2nc2n1CCCCC2 [Example 21.1, 3-phenethyl-7,8,9,10-tetrahydroazepino[2,1-b]quinazolin-12(6H)-one]
100 to 300	O=C(Cc1ccccc1)c1ccc2c(=O)n3c(nc2c1)CCCCC3 [Example 21.3, 3-(2-phenylacetyl)-7,8,9,10-tetrahydroazepino[2,1-b]quinazolin-12(6H)-one]
100 to 300	Cc1cnc(NC(=O)c2ccc3c(=O)n4c(nc3c2)CCC(C)CC4)s1 (stereo not shown) [Example 23.1, 8-methyl-N-(5-methylthiazol-2-yl)-12-oxo-6,7,8,9,10,12-hexahydroazepino[2,1-b]quinazoline-3-carboxamide]
300 to 1000	O=C(Nc1ccc2c(=O)n3c(nc2c1)CCCCCC3)c1ccc(F)cc1 [Example 24.1, 4-fluoro-N-(13-oxo-7,8,9,10,11,13-hexahydro-6H-azocino[2,1-b]quinazolin-3-yl)benzamide]
< 10	C/C=C1\CCCCCn2c1nc1cc(C(=O)Nc3ncc(C)s3)ccc1c2=O [Example 25.1, (E)-6-ethylidene-N-(5-methylthiazol-2-yl)-13-oxo-7,8,9,10,11,13-hexahydro-6H-azocino[2,1-b]quinazoline-3-carboxamide]
300 to 1000	O=C(Nc1ccc(F)cc1)c1ccc2c(c1)N=C1CCCCCCN1C2 [Example 26.1, N-(4-fluorophenyl)-7,8,9,10,11,13-hexahydro-6H-azocino[2,1-b]quinazoline-3-carboxamide]
< 10	Cc1cnc(NC(=O)c2ccn3c(=O)c4c(nc3c2)CCCCCC4)s1 [Example 28.1, N-(5-methylthiazol-2-yl)-12-oxo-7,8,9,10,11,12-hexahydro-6H-cycloocta[d]pyrido[1,2-a]pyrimidine-3-carboxamide]
30 to 100	Cc1cnc(NC(=O)c2ccn3c(=O)c4c(nc3c2)CCCCC4)s1 [Example 28.3, N-(5-methylthiazol-2-yl)-11-oxo-6,7,8,9,10,11-hexahydrocyclohepta[d]pyrido[1,2-a]pyrimidine-3-carboxamide]

The next lines start with the compound.

Compound	EC50 [nM]
O=c1c2c(nc3cc(C#Cc4ccccc4)ccn13)CCCCCC2 [Example 17.1, 3-(phenylethynyl)-8,9,10,11-tetrahydro-6H-cycloocta[d]pyrido[1,2-a]pyrimidin-12(7H)-one]	< 10
O=c1c2c(nc3cc(C#Cc4ccccn4)ccn13)CCCCCC2 [Example 17.2, 3-(pyridin-2-ylethynyl)-8,9,10,11-tetrahydro-6H-cycloocta[d]pyrido[1,2-a]pyrimidin-12(7H)-one]	< 10
O=c1c2c(nc3cc(C#Cc4cccnc4)ccn13)CCCCCC2 [Example 17.3, 3-(pyridin-3-ylethynyl)-8,9,10,11-tetrahydro-6H-cycloocta[d]pyrido[1,2-a]pyrimidin-12(7H)-one]	< 10
O=c1c2c(nc3cc(C#Cc4ccncc4)ccn13)CCCCCC2 [Example 17.4, 3-(pyridin-4-ylethynyl)-8,9,10,11-tetrahydro-6H-cycloocta[d]pyrido[1,2-a]pyrimidin-12(7H)-one]	< 10
O=c1c2c(nc3cc(C#Cc4ccc(F)cc4)ccn13)CCCCCC2 [Example 17.5, 3-((4-fluorophenyl)ethynyl)-8,9,10,11-tetrahydro-6H-cycloocta[d]pyrido[1,2-a]pyrimidin-12(7H)-one]	< 10
CC1CCc2nc3cc(/C=C/c4ccccn4)ccc3c(=O)n2CC1 (stereo not shown) [Example 20.3, (E)-8-methyl-3-(2-(pyridin-2-yl)vinyl)-7,8,9,10-tetrahydroazepino[2,1-b]quinazolin-12(6H)-one]	100 to 300
CC1Cc2nc3cc(/C=C/c4ccccc4)ccc3c(=O)n2C1 (stereo not shown) [Example 20.4, (E)-2-methyl-6-styryl-2,3-dihydropyrrolo[2,1-b]quinazolin-9(1H)-one]	30 to 100
CC1(C)CCn2c(nc3cc(/C=C/c4cccc(C#N)n4)ccc3c2=O)C1 [Example 20.9, (E)-6-(2-(7,7-dimethyl-11-oxo-7,8,9,11-tetrahydro-6H-pyrido[2,1-b]quinazolin-3-yl)vinyl)picolinonitrile]	100 to 300
CC1Cc2nc3cc(/C=C/c4cccc(F)c4)ccc3c(=O)n2C1 (stereo not shown) [Example 20.14, 6-(3-fluorostyryl)-2,3-dihydro-2-methylpyrrolo[2,1-b]quinazolin-9(1H)-one]	100 to 300
CC1(C)CCn2c(nc3cc(CCc4ccccn4)ccc3c2=O)C1 [Example 21.6, 7,7-dimethyl-3-(2-(pyridin-2-yl)ethyl)-8,9-dihydro-6H-pyrido[2,1-b]quinazolin-11(7H)-one]	300 to 1000
CC1Cc2nc3cc(CCc4cccc(F)c4)ccc3c(=O)n2C1 (stereo not shown) [Example 21.7, 6-(3-fluorophenethyl)-2-methyl-2,3-dihydropyrrolo[2,1-b]quinazolin-9(1H)-one]	300 to 1000
Cc1cnc(NC(=O)c2ccc3c(=O)n4c(nc3c2)CCOCC4)s1 [Example 23.2, N-(5-methylthiazol-2-yl)-11-oxo-2,4,5,11-tetrahyrdo-1H-[1,4]oxazepino[5,4-b]quinazoline-8-carboxamide]	100 to 300
Cc1cnc(NC(=O)c2ccc3c(=O)n4c(nc3c2)C(C)CCCCC4)s1 (stereo not shown) [Example 25.3, 6-methyl-N-(5-methylthiazol-2-yl)-13-oxo-7,8,9,10,11,13-hexahydro-6H-azocino[2,1-b]quinazoline-3-carboxamide]	10 to 30
O=C(Nc1ccc(F)cc1)c1ccn2c(=O)c3c(nc2c1)CCCCCC3 [Example 28.2, N-(4-fluorophenyl)-12-oxo-7,8,9,10,11,12-hexahydro-6H-cycloocta[d]pyrido[1,2-a]pyrimidine-3-carboxamide]	300 to 1000

Source: patent US10077243B2, “Compounds for treating disorders mediated by metabotropic glutamate receptor 5, and methods of use thereof” (Sunovion Pharmaceuticals Inc., priority 2009, dated 2018)
